Publication PMC8661032, “Broad-Spectrum Antibacterial Peptide Kills Extracellular and Intracellular Bacteria Without Affecting Epithelialization” (Frontiers in Microbiology, 2021)
≈ marks a conversion by molar mass, not a printed value. Residues, ends and D or L forms follow the SMILES beside them.

Columns and labels:
E. coli [1] = test: Rifampicin (RifR) mutagenesis assay after UV-C; format: cell-based, Escherichia coli; settings: 20 μg/ml peptide, UV-C 20 mJ/cm^2, RifR assay, relative to untreated control
Description: The rifampicin (Rif^R) mutagenesis assay was performed as described ([Nedal et al., 2020]). Briefly, an overnight culture of E. coli was diluted 1:1,000 and grown until an OD600 of 0.01. APIM-peptides (20 μg/ml) were added to LB media with glass beads (for uniform distribution of APIM-peptides) and incubated for 30 min at 37°C. The pellets were next collected, resuspended in 500 μl PBS, and exposed to UV-C (20 mJ/cm^2) in a six-well plate at 4°C. The unexposed bacteria (-UV) were otherwise handled exactly like the UV-exposed bacteria. Next, the cells were resuspended in LB media and incubated in a rotary shaker at 37°C at 250 rpm for 2 h before being harvested, diluted, and plated on LB with soft agar with and without rifampicin (100 μg/ml). Mutation frequency, Rif^R/10^8, is obtained as follows: (number of colonies on the rifampicin plate (Rif^R)/(number of colonies on LB plates without antibiotics), per milliliter of bacterial suspension. […]
mutagenesis in E. coli more efficiently than the other peptide variants.
Increase in mutation frequencies after treatment with UV-C (20 mJ/cm2) relative to spontaneous mutations frequencies using the RifR assay were determined. This increase is set to 100% for untreated control, and % reduction after addition of peptides 1-5 (20 μg/mL) are shown. Mean ± SD from three independent experiments. * p<0.05, ** p<0.005

HaCaT keratinocytes = format: cell-based, human; settings: betatide 2 μg/ml, 3-mm gap, similar to the uninfected cells
Description: Bacterial growth was examined by plating of supernatants.
Epithelialization was calculated from the change in the area of the gaps over time using freehand or rectangular selections in the software Fiji ImageJ 1.52p (National Institutes of Health, United States).
=(AreaofgapinDay 1-Areaofgapineachconsecutiveday)/AreaofgapinDay 1

HEK293 cells = tested on: HEK293 cells
Description: HEK293 cells (6,000 cells/well) were seeded in 96-well microtiter plates. After 4 h, APIM-peptides (12–48 μg/ml) were added, and the cells were incubated without change of media for up to 4 days. Viability was measured using the 3-(4,5-dimethylthiazol-2-yl)-2,5-diphenyltetrazolium bromide (MTT) assay as described ([Gilljam et al., 2009]).
(1 picture or pasted object on this page, not shown here)

[2] = tested on: intracellular S. aureus ATCC 29213 in HaCaT cells; test: Intracellular infection model; format: cell-based, Staphylococcus aureus
Description: The intracellular infection model used was modified from [Iqbal et al. (2016)] by optimizing the number of multiplicity of infection (MOI: number of bacteria per cell) and time of infection. Briefly, HaCaT cells (6.5 × 10^4/well) were seeded in 24-well plates and incubated overnight in a medium without antibiotics. The next day, approximately 1.25 × 10^5 cells/well were infected with S. aureus at an MOI of 100 in antibiotic-free media. The plates were incubated for 3 h. […] After 16 h of incubation, the extracellular media (100 μl) from each well were plated to confirm the eradication of extracellular S. aureus. Next, the cells were washed 2× with 500 μl PBS before they were lysed with 0.2% Triton-X (500 μl) for 30 min at room temperature. The lysed samples were placed on ice, and 500 μl cold Tryptic Soy Broth was added before they were plated on blood agar plates.

Cpx mutant E. coli cells = Cpx mutant E. coli cells with constitutive active Cpx response; ref Frimodt-Moller et al., 2021; cited from earlier work
Description: This, in turn, can reduce the fitness of the bacteria, similar to what has been shown for another peptide targeting the β-clamp called griselimycin.

bacteria = test: MIC comparisons between peptide variants (bacterium not stated); format: cell-based; settings: betatide compared to ATX-101
E. coli [3] = test: Growth inhibition assay (OD600 over 24 h); format: cell-based, Escherichia coli; parameters: Reduction of viability E. coli (60 μg/ml): key to the marks not given beside the values; settings: LB medium
Description: An overnight culture of Escherichia coli was diluted 1:100 in Luria-Bertani (LB) medium and allowed to grow until an optical density (OD) at 600 nm (OD600) of 0.06–0.1. APIM-peptides were prepared by serial dilution in Milli-Q H2O and kept at 4°C. Fresh LB medium (60 μl) was added to a flat-bottom microtiter plate. The bacterial suspension was diluted 1:100 in LB, and 75 μl of this suspension was added to the wells. Finally, 15 μl of APIM-peptide solution (to final concentrations 60, 120, and 240 μg/ml) or distilled water (positive control) was added to the wells, reaching a total volume of 150 μl per well. Data are presented only for the dose that separated the effect of the different peptides, i.e., 60 μg/ml. A blank sterile medium was used as negative control. The plates were incubated with shaking at 510 rpm at 37°C inside a plate reader (TECAN, Spark®), and OD was read every hour over a period of 24 h.
The MIC for E. coli in LB medium is higher than that in CAMHB; thus, concentrations higher than the MIC given in Table 2 are used in the growth inhibition and mutagenesis assays. […]
E. coli. Growth of E. coli in LB medium over 24 hours (Optical Density (OD) 600 nm) after addition
of APIM-peptide variants 1-5 (60 µg/mL) at time t=0 (see Table 2). Negative (-) control is no
bacteria added, positive (+) control is untreated bacteria.
highest inhibition of growth.
control (black filled line).

E. coli [4] = test: microbe, parasite or virus in culture; settings: 24 h
Description: (§1) Briefly, bacterial colonies from blood agar plates were suspended and grown in Cation-Adjusted Mueller-Hinton Broth (CAMHB, […] Ca^2+, […] Mg^2+). The bacterial suspension was adjusted to 0.5 McFarland standard (∼1 × 10^8 colony-forming units (CFU)/ml) and serial diluted 1:200 in CAMHB (∼5 × 10^5 CFU/mL). […] The suspension was plated out on blood agar plates to confirm the CFU/ml. Both the microtiter plates and the blood agar plates were incubated at 37°C for 24 h.

E. cloacae = test: microbe, parasite or virus in culture; settings: 24 h
Description: as §1

S. aureus = test: microbe, parasite or virus in culture; settings: 24 h
Description: as §1

K. pneumoniae = test: microbe, parasite or virus in culture; settings: 24 h
Description: as §1

E. faecium = test: microbe, parasite or virus in culture; settings: 24 h
Description: as §1

P. aeruginosa = test: microbe, parasite or virus in culture; settings: 24 h
Description: as §1

A. baumannii = test: microbe, parasite or virus in culture; settings: 24 h
Description: as §1

[5] = tested on: S. epidermidis MRSE (SO-SEP9-1); settings: SO-SEP9-1, 24 h
Description: as §1

CC[C@H](C)[C@H](NC(=O)CNC(=O)[C@H](CCCCN)NC(=O)[C@@H](NC(=O)[C@H](CC(C)C)NC(=O)[C@H](Cc1c[nH]c2ccccc12)NC(=O)[C@H](CCCNC(=N)N)NC(=O)[C@H](CC(=O)O)NC(=O)[C@H](CCSC)NC(C)=O)C(C)C)C(=O)N[C@@H](CC(C)C)C(=O)N[C@@H](CCC(N)=O)C(=O)N[C@@H](Cc1c[nH]c2ccccc12)C(=O)N[C@@H](CCCNC(=N)N)C(=O)N[C@@H](CCCCN)C(=O)N[C@H](C(=O)N[C@@H](CCCNC(=N)N)C(=O)N[C@@H](CCCNC(=N)N)C(=O)N[C@@H](CCCNC(=N)N)C(=O)N[C@@H](CCCNC(=N)N)C(=O)N[C@@H](CCCNC(=N)N)C(=O)N[C@@H](CCCNC(=N)N)C(=O)N[C@@H](CCCNC(=N)N)C(=O)N[C@@H](CCCNC(=N)N)C(=O)N[C@@H](CCCNC(=N)N)C(=O)N[C@@H](CCCNC(=N)N)C(=O)N[C@@H](CCCNC(=N)N)C(N)=O)[C@@H](C)CC [betatide] (Ac-MDRWLVKGILQWRKIRRRRRRRRRRR-NH2)
Reduction of mutation frequency E. coli (20 μg/ml) (E. coli [1]): ++++
epithelialization of MRSE-infected HaCaT cells (HaCaT keratinocytes): completed at day 4
Reduction of viability HEK293 (24 μg/ml) (HEK293 cells): +
reduction in intracellular bacterial load ([2]; betatide 24 μg/ml for 16 h, MOI 100, 3 h infection, extracellular bacteria killed by gentamicin, compared to untreated control): 4 ×
intracellular bacterial load (CFU) ([2]; concentrations of betatide lower than 24 μg/ml, 16 h): did not cause a significant reduction in CFU
increase in MIC (Cpx mutant E. coli cells): 2 ×
reduction of MIC by changes in the linker region (bacteria; from Table 2): ~2 ×
reduction of MIC by amidation of the C-termini (bacteria; unpublished data): ~4 ×
inhibition of growth of E. coli (OD 600 nm) (E. coli [3]; 60 µg/mL, over 24 hours, Supplementary Figure S1): lowest OD after 8 hours
Reduction of viability E. coli (60 μg/ml) (E. coli [3]; 60 μg/ml peptide, OD600 every hour over 24 h, relative to untreated control): ++++
MIC (E. coli [4]): 16 mg/L (≈ 4.32 µM)
MIC (E. coli [4]; Clinical isolate SO-ECO19-1 (ESBL-CARB-A(CTX-M-24)/D(OXA-48)), CAMHB, three independent experiments): 16 mg/L (≈ 4.32 µM)
MIC E. coli (E. coli [4]; K-12 MG1655, CLSI broth microdilution, CAMHB, 37°C, visible growth, net peptide concentration): 16 mg/L (≈ 4.32 µM)
MIC (E. cloacae): 16 mg/L (≈ 4.32 µM)
MIC (S. aureus): 32 mg/L (≈ 8.65 µM)
MIC (S. aureus; Clinical isolate SO-SAU19-1 (MRSA), CAMHB, three independent experiments): 16 mg/L (≈ 4.32 µM)
MIC (S. aureus; Reference strain ATCC 29213, CAMHB, three independent experiments): 16 mg/L (≈ 4.32 µM)
MIC (K. pneumoniae): 16 mg/L (≈ 4.32 µM)
MIC (E. faecium): 8 mg/L (≈ 2.16 µM)
MIC (P. aeruginosa): 16 mg/L (≈ 4.32 µM)
MIC (A. baumannii): 8 mg/L (≈ 2.16 µM)
MIC (A. baumannii; Clinical isolate SO-ABA19-1 (ESBL-CARBA-D), CAMHB, three independent experiments): 8 mg/L (≈ 2.16 µM)
MIC S. epidermidis MRSE [5]: 16 mg/L (≈ 4.32 µM)
MIC for MRSE in DMEM [5]: 0.25 mg/L
concentration tolerated by uninfected HaCaT cells (HaCaT cells): up to 40 μg/ml
